Each compound was assayed against T1, NLRP3 (Homo sapiens, UniProt Q96P20) (assay: IL-1β Secretion Assay (NLRP3-dependent IL1β secretion in THP1 cells)). Details: PMA-differentiated THP-1 cells; compounds incubated 20 h; 2.5 μM Nigericin 3 h; HTRF IL-1β readout; read-out: IC50 IL-1β Inhibition.
T1 construct: host or cells: THP-1 cells differentiated with PMA
Type: cell-based
Procedure: Monocytic THP-1 cells (ATCC: TIB-202) were maintained in growth media consisting of RPMI 1640 medium (ThermoFisher, Cat #11875-085), 10% FBS (ThermoFisher) and 0.05 mM β-mercaptoethanol (ThermoFisher, Cat #21985-023), according to the provider's instructions. The cell concentration was adjusted to 7.5×10^5 cells/mL, and plated in complete growth media with a final concentration of 100 ng/mL phorbol 12-myristate 13-acetate (PMA, Sigma #P8139). Cells were seeded at 100 µL/well into a 96-well cell culture plate (ThermoFisher Cat #165305) and allowed to differentiate for 24 h in a cell culture incubator at 37° C. with 5% CO2. Cells were washed 1× with 100 ul PBS and replaced with fresh RPMI+5% FBS. Compounds were serial diluted in DMSO with 3 fold dilution for a total of 7 concentrations. Diluted compounds were added to the cells at a ratio of 1:200 and incubated for 20 h. The NLRP3 inflammasome was activated with the addition of 2.5 μM Nigericin (Sigma: Cat #SML1779-1 ml), for 3 h. After incubation, 15 μL of conditioned media was removed and assayed for levels of IL-1β using the HTRF IL-1β assay kit (Cisbio: Cat #62HIL1BPEH) as per the manufacturer's instructions.
Compounds, once produced and prepared according to the present invention, can be assessed in variety of assays to characterize their activities. For example, NLRP3-dependent IL1β secretion was evaluated in THP1 cells. IC50 values of IL1β inhibition were calculated from the plot of percentage of inhibition versus the inhibitor concentration by a logistics fit. TABLE I depict examples of compounds according to generic Formula I. Data which is <1 nM is listed as *****; data 1-10 nM is listed as ****; data 10-100 nM is listed as ***, data 100-300 nM is listed as **, data ≥300 nM is listed as *.

T1 sequence (Q96P20 whole entry): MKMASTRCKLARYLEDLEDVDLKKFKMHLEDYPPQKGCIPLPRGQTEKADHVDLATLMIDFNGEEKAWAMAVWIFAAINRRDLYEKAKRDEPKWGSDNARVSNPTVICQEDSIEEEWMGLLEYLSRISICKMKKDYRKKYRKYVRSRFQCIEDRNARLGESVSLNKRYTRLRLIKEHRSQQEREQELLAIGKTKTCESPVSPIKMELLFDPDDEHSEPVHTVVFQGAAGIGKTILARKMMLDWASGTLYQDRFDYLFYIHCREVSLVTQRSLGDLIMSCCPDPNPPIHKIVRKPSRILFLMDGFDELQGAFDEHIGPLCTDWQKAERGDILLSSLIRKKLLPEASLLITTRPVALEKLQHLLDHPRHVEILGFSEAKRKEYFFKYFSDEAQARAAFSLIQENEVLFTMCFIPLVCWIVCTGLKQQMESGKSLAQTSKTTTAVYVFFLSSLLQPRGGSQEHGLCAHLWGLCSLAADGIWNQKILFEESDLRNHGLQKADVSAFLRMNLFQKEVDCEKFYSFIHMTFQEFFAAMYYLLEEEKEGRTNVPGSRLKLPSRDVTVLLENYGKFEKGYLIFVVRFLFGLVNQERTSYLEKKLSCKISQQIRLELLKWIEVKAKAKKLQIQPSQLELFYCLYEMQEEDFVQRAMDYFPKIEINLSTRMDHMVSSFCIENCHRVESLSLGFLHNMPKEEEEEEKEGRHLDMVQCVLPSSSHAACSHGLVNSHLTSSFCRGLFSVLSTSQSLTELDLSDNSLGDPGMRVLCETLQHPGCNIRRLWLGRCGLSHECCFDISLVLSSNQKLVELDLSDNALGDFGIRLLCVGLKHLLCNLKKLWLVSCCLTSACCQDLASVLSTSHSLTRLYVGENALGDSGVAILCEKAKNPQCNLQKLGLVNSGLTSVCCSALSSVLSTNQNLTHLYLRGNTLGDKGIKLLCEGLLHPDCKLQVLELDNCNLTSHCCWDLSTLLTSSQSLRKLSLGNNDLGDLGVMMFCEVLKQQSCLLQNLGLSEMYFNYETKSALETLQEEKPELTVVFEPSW

| Compound | IC50 [nM] |
| --- | --- |
| Cc1cc2c(-c3ccc(Cl)cc3OC(F)F)nnc(N[C@@H]3CCCN(C)C3)n2c1 [Compound 13, 1-[4-chloro-2-(difluoromethoxy)phenyl]-7-methyl-N-[(3R)-1-methylpiperidin-3-yl]pyrrolo[1,2-d][1,2,4]triazin-4-amine] | 1 to 10 |
| Cc1cc2c(-c3ccc(C4CC4)cc3C(F)F)nnc(N[C@@H]3CCCN(C)C3)n2c1 [Compound 14, 1-[4-cyclopropyl-2-(difluoromethyl)phenyl]-7-methyl-N-[(3R)-1-methylpiperidin-3-yl]pyrrolo[1,2-d][1,2,4]triazin-4-amine] | 1 to 10 |
| OCCN1CCC[C@@H](Nc2nnc(-c3ccc(C(F)(F)F)cc3OC(F)F)c3c(F)ccn23)C1 [Compound 15] | 1 to 10 |
| C[C@H](O)CNc1nnc(-c2ccc(C(F)(F)F)cc2OC(F)F)c2c(F)ccn12 [Compound 16, (2S)-1-({1-[2-(difluoromethoxy)-4-(trifluoromethyl)phenyl]-8-fluoropyrrolo[1,2-d][1,2,4]triazin-4-yl}amino)propan-2-ol] | 10 to 100 |
| CCN1CCC[C@@H](Nc2nnc(-c3ccc(OC)cc3C(F)(F)F)c3c(F)ccn23)C1 [Compound 17, N-[(3R)-1-ethylpiperidin-3-yl]-8-fluoro-1-[4-methoxy-2-(trifluoromethyl)phenyl]pyrrolo[1,2-d][1,2,4]triazin-4-amine] | 1 to 10 |
| COc1ccc(-c2nnc(N[C@@H]3CCCN(CCO)C3)n3ccc(F)c23)c(C(F)(F)F)c1 [Compound 18, 2-[(3R)-3-({8-fluoro-1-[4-methoxy-2-(trifluoromethyl)phenyl]pyrrolo[1,2-d][1,2,4]triazin-4-yl}amino)piperidin-1-yl]ethan-1-ol] | 1 to 10 |
| CN1CCC[C@@H](Nc2nnc(-c3ccc(C(F)(F)F)cc3F)c3cccn23)C1 [Compound 19, 1-[2-fluoro-4-(trifluoromethyl)phenyl]-N-[(3R)-1-methylpiperidin-3-yl]pyrrolo[1,2-d][1,2,4]triazin-4-amine] | 10 to 100 |
| CCN1CCC[C@@H](Nc2nnc(-c3ccc(C(F)(F)F)cc3F)c3cccn23)C1 [Compound 20, N-[(3R)-1-ethylpiperidin-3-yl]-1-[2-fluoro-4-(trifluoromethyl)phenyl]pyrrolo[1,2-d][1,2,4]triazin-4-amine] | 1 to 10 |
| OCCN1CCC[C@@H](Nc2nnc(-c3ccc(C(F)(F)F)cc3F)c3cccn23)C1 [Compound 21, 2-[(3R)-3-({1-[2-fluoro-4-(trifluoromethyl)phenyl]pyrrolo[1,2-d][1,2,4]triazin-4-yl}amino)piperidin-1-yl]ethan-1-ol] | 10 to 100 |
| CC(CO)N1CCC[C@@H](Nc2nnc(-c3ccc(C(F)(F)F)cc3OC(F)F)c3cccn23)C1 (stereo partly drawn) [Compound 22, 2-[(3R)-3-({1-[2-(difluoromethoxy)-4-(trifluoromethyl)phenyl]pyrrolo[1,2-d][1,2,4]triazin-4-yl}amino)piperidin-1-yl]propan-1-ol] | < 1 |
| Cc1ccc(-c2nnc(N[C@@H]3CCCN(C)C3)n3cc(C)cc23)c(C(F)F)c1 [Compound 23, 1-[2-(difluoromethyl)-4-methylphenyl]-7-methyl-N-[(3R)-1-methylpiperidin-3-yl]pyrrolo[1,2-d][1,2,4]triazin-4-amine] | 1 to 10 |
| Cc1cc2c(-c3ccc(C4CC4)cc3OC(F)F)nnc(N[C@@H]3CCCN(C)C3)n2c1 [Compound 24, 1-[4-cyclopropyl-2-(difluoromethoxy)phenyl]-7-methyl-N-[(3R)-1-methylpiperidin-3-yl]pyrrolo[1,2-d][1,2,4]triazin-4-amine] | < 1 |
| Cc1ccc(-c2nnc(N[C@@H]3CCCN(C)C3)n3cc(C)cc23)c(OC(F)F)c1 [Compound 25, 1-[2-(difluoromethoxy)-4-methylphenyl]-7-methyl-N-[(3R)-1-methylpiperidin-3-yl]pyrrolo[1,2-d][1,2,4]triazin-4-amine] | 1 to 10 |
| COc1ccc(-c2nnc(N[C@@H]3CCCN(C)C3)n3cccc23)c(C)c1 [Compound 26, 1-(4-methoxy-2-methylphenyl)-N-[(3R)-1-methylpiperidin-3-yl]pyrrolo[1,2-d][1,2,4]triazin-4-amine] | 10 to 100 |
| COc1ccc(-c2nnc(N[C@@H]3CCCN(C)C3)n3cccc23)c(C2CC2)c1 [Compound 27, 1-(2-cyclopropyl-4-methoxyphenyl)-N-[(3R)-1-methylpiperidin-3-yl]pyrrolo[1,2-d][1,2,4]triazin-4-amine] | 1 to 10 |
| CN1CCC[C@@H](Nc2nnc(-c3ccc(C(F)(F)F)cc3C(F)(F)F)c3c(F)ccn23)C1 [Compound 28, 1-[2,4-bis(trifluoromethyl)phenyl]-8-fluoro-N-[(3R)-1-methylpiperidin-3-yl]pyrrolo[1,2-d][1,2,4]triazin-4-amine] | 1 to 10 |
| CCN1CCC[C@@H](Nc2nnc(-c3ccc(C(F)(F)F)cc3C(F)(F)F)c3c(F)ccn23)C1 [Compound 29, 1-[2,4-bis(trifluoromethyl)phenyl]-N-[(3R)-1-ethylpiperidin-3-yl]-8-fluoropyrrolo[1,2-d][1,2,4]triazin-4-amine] | 1 to 10 |
| OCCN1CCC[C@@H](Nc2nnc(-c3ccc(C(F)(F)F)cc3C(F)(F)F)c3c(F)ccn23)C1 [Compound 30, 2-[(3R)-3-({1-[2,4-bis(trifluoromethyl)phenyl]-8-fluoropyrrolo[1,2-d][1,2,4]triazin-4-yl}amino)piperidin-1-yl]ethan-1-ol] | 1 to 10 |
| CN1C[C@H](F)C[C@@H](Nc2nnc(-c3ccc(C(F)(F)F)cc3C(F)(F)F)c3c(F)ccn23)C1 [Compound 31, 1-[2,4-bis(trifluoromethyl)phenyl]-8-fluoro-N-[(3R,5R)-5-fluoro-1-methylpiperidin-3-yl]pyrrolo[1,2-d][1,2,4]triazin-4-amine] | 1 to 10 |
| CCN1C[C@H](F)C[C@@H](Nc2nnc(-c3ccc(C(F)(F)F)cc3C(F)(F)F)c3c(F)ccn23)C1 [Compound 32, 1-[2,4-bis(trifluoromethyl)phenyl]-N-[(3R,5R)-1-ethyl-5-fluoropiperidin-3-yl]-8-fluoropyrrolo[1,2-d][1,2,4]triazin-4-amine] | 1 to 10 |
| Cc1ccc(-c2nnc(N[C@@H]3CCCN(C)C3)n3cccc23)c(OC(F)F)c1 [Compound 33, 1-[2-(difluoromethoxy)-4-methylphenyl]-N-[(3R)-1-methylpiperidin-3-yl]pyrrolo[1,2-d][1,2,4]triazin-4-amine] | 1 to 10 |
| CCN1CCC[C@@H](Nc2nnc(-c3ccc(C)cc3OC(F)F)c3cccn23)C1 [Compound 34, 1-[2-(difluoromethoxy)-4-methylphenyl]-N-[(3R)-1-ethylpiperidin-3-yl]pyrrolo[1,2-d][1,2,4]triazin-4-amine] | 1 to 10 |
| FC(F)Oc1cc(C(F)(F)F)ccc1-c1nnc(N[C@@H]2CCCNC2)n2cccc12 [Compound 35, 1-[2-(difluoromethoxy)-4-(trifluoromethyl)phenyl]-N-[(3R)-piperidin-3-yl]pyrrolo[1,2-d][1,2,4]triazin-4-amine] | 10 to 100 |
| Cc1ccc(-c2nnc(N[C@@H]3CCCN(C)C3)n3cccc23)c(OC(F)(F)F)c1 [Compound 36, N-[(3R)-1-methylpiperidin-3-yl]-1-[4-methyl-2-(trifluoromethoxy)phenyl]pyrrolo[1,2-d][1,2,4]triazin-4-amine] | 1 to 10 |
| CN1CCC[C@@H](Nc2nnc(-c3ccc(C4CC4)cc3OC(F)(F)F)c3cccn23)C1 [Compound 37, 1-[4-cyclopropyl-2-(trifluoromethoxy)phenyl]-N-[(3R)-1-methylpiperidin-3-yl]pyrrolo[1,2-d][1,2,4]triazin-4-amine] | < 1 |
| C[C@]1(O)C[C@@H](Nc2nnc(-c3ccc(C(F)(F)F)cc3C(F)(F)F)c3c(F)ccn23)C1 [Compound 38, (1s,3s)-3-({1-[2,4-bis(trifluoromethyl)phenyl]-8-fluoropyrrolo[1,2-d][1,2,4]triazin-4-yl}amino)-1-methylcyclobutan-1-ol] | 10 to 100 |
| COc1ccc(-c2nnc(N[C@@H]3CCCN(C)C3)n3ccc(F)c23)c(OC(F)(F)F)c1 [Compound 39, 8-fluoro-1-[4-methoxy-2-(trifluoromethoxy)phenyl]-N-[(3R)-1-methylpiperidin-3-yl]pyrrolo[1,2-d][1,2,4]triazin-4-amine] | 1 to 10 |
| CN1CCC[C@@H](Nc2nnc(-c3ccc(C(F)(F)F)cc3CC(F)(F)F)c3cccn23)C1 [Compound 40, N-[(3R)-1-methylpiperidin-3-yl]-1-[2-(2,2,2-trifluoroethyl)-4-(trifluoromethyl)phenyl]pyrrolo[1,2-d][1,2,4]triazin-4-amine] | < 1 |
| C[C@]1(O)C[C@@H](Nc2nnc(-c3ccc(C(F)(F)F)cc3CC(F)(F)F)c3cccn23)C1 [Compound 41, (1s,3s)-1-methyl-3-({1-[2-(2,2,2-trifluoroethyl)-4-(trifluoromethyl)phenyl]pyrrolo[1,2-d][1,2,4]triazin-4-yl}amino)cyclobutan-1-ol] | 1 to 10 |
